From ChEMBL document CHEMBL4706616, “Design, synthesis, and evaluation of substituted 2-acylamide-1,3-benzo[d]zole analogues as agents against MDR- and XDR-MTB” (Eur J Med Chem, 2021)
Converted amounts (≈) assume the structure as drawn.

Tests used:
[1] = test system: Mycobacterium tuberculosis; assay: Antitubercular activity against isoniazid/rifampicin/streptomycin/capreomycin/ofloxacin extensively drug-resistant Mycobacterium tuberculosis FJ05195 clinical isolates assessed as bacterial growth inhibition by MABA; type: functional
[2] = test system: Mycobacterium tuberculosis; assay: Antitubercular activity against isoniazid/rifampicin multidrug-resistant Mycobacterium tuberculosis FJ05120 clinical isolates assessed as bacterial growth inhibition by MABA; type: functional

SMILES	MIC [1]	MIC [2]
Cc1nnsc1C(=O)Nc1nc2ccccc2[nH]1	30.9 µM (≈ 8 µg/mL)	30.9 µM (≈ 8 µg/mL)
Cc1nnsc1C(=O)Nc1nc2cc(-c3cccnc3)ccc2o1	2.96 µM (≈ 0.999 µg/mL)	1.48 µM (≈ 0.499 µg/mL)
NNC(=O)c1ccncc1 [ISONIAZID]	29.2 µM (≈ 4 µg/mL)	7.29 µM (≈ 1 µg/mL)
Cc1nnsc1C(=O)Nc1nc2cc(-c3ccncc3)ccc2o1	1.48 µM (≈ 0.499 µg/mL)	0.74 µM (≈ 0.25 µg/mL)
O=C(Nc1nc2ccccc2o1)c1ccc(Cl)s1	14.3 µM (≈ 4 µg/mL)	14.3 µM (≈ 4 µg/mL)
Cc1nnsc1C(=O)Nc1nc2ccc(Cl)cc2o1	0.85 µM (≈ 0.251 µg/mL)	0.42 µM (≈ 0.124 µg/mL)
O=C(Nc1nc2ccccc2o1)c1cccs1	32.8 µM (≈ 8 µg/mL)	32.8 µM (≈ 8 µg/mL)
COC(=O)c1ccc(-c2ccc3oc(NC(=O)c4snnc4C)nc3c2)cc1	0.63 µM (≈ 0.248 µg/mL)	0.63 µM (≈ 0.248 µg/mL)
Cc1nnsc1C(=O)Nc1nc2cc(-c3cnn(C)c3)ccc2o1	1.47 µM (≈ 0.5 µg/mL)	0.73 µM (≈ 0.248 µg/mL)
Cc1nnsc1C(=O)Nc1nc2c(ccc3ncccc32)o1	25.7 µM (≈ 8 µg/mL)	25.7 µM (≈ 8 µg/mL)
CC[C@@H](CO)NCCN[C@@H](CC)CO [ETHAMBUTOL]	39.2 µM (≈ 8 µg/mL)	4.89 µM (≈ 0.999 µg/mL)
Cc1nnsc1C(=O)Nc1nc2c(OCc3ccccn3)cccc2o1	5.44 µM (≈ 2 µg/mL)	2.72 µM (≈ 0.999 µg/mL)
O=C(Nc1nc2ccccc2o1)c1ccco1	35.1 µM (≈ 8 µg/mL)	70.1 µM (≈ 16 µg/mL)
Cc1nnsc1C(=O)Nc1nc2ccccc2s1	57.9 µM (≈ 16 µg/mL)	57.9 µM (≈ 16 µg/mL)
Cc1nnsc1C(=O)Nc1nc2ccc(C(C)(C)C)cc2o1	6.32 µM (≈ 2 µg/mL)	6.32 µM (≈ 2 µg/mL)
O=C(Nc1nc2ccccc2o1)c1ccccc1	537 µM (≈ 128 µg/mL)	537 µM (≈ 128 µg/mL)
Cc1nnsc1C(=O)Nc1nc2cc(C(C)(C)C)ccc2o1	0.4 µM (≈ 0.127 µg/mL)	0.4 µM (≈ 0.127 µg/mL)

SMILES	MIC [1]	MIC [2]
Cc1ccc2oc(NC(=O)c3snnc3C)nc2c1	7.29 µM (≈ 2 µg/mL)	7.29 µM (≈ 2 µg/mL)
COC(=O)c1ccc2oc(NC(=O)c3snnc3C)nc2c1	3.14 µM (≈ 1 µg/mL)	1.57 µM (≈ 0.5 µg/mL)
Cc1nnsc1C(=O)Nc1nc2c(-c3ccccn3)cccc2o1	47.4 µM (≈ 16 µg/mL)	23.7 µM (≈ 8 µg/mL)
CO[C@H]1/C=C/O[C@@]2(C)Oc3c(C)c(O)c4c(O)c(c(/C=N/N5CCN(C)CC5)c(O)c4c3C2=O)NC(=O)/C(C)=C\C=C\[C@H](C)[C@H](O)[C@@H](C)[C@@H](O)[C@@H](C)[C@H](OC(C)=O)[C@@H]1C [RIFAMPIN]	> 311 µM	> 311 µM
Cc1nnsc1C(=O)Nc1nc2ncccc2o1	7.66 µM (≈ 2 µg/mL)	3.83 µM (≈ 1 µg/mL)
Cc1nnsc1C(=O)Nc1nc2cc(-c3ccccn3)ccc2o1	0.37 µM (≈ 0.125 µg/mL)	0.37 µM (≈ 0.125 µg/mL)
Cc1nnsc1C(=O)Nc1nc2c(ccc3ccccc32)o1	103 µM (≈ 32 µg/mL)	103 µM (≈ 32 µg/mL)
Cc1nnsc1C(=O)Nc1nc2cc(F)ccc2o1	1.8 µM (≈ 0.501 µg/mL)	0.45 µM (≈ 0.125 µg/mL)
Cc1nnsc1C(=O)Nc1nc2cc(N3CCOCC3)ccc2o1	23.2 µM (≈ 8 µg/mL)	23.2 µM (≈ 8 µg/mL)
Cc1nnsc1C(=O)Nc1nc2c(Oc3ncccn3)cccc2o1	2.82 µM (≈ 0.999 µg/mL)	5.64 µM (≈ 2 µg/mL)
Cc1nnsc1C(=O)Nc1nc2cc(Cl)ccc2o1	1.7 µM (≈ 0.501 µg/mL)	1.7 µM (≈ 0.501 µg/mL)
Cc1nnsc1C(=O)Nc1nc2c(ccc3cccnc32)o1	25.7 µM (≈ 8 µg/mL)	6.42 µM (≈ 2 µg/mL)
Cc1nnsc1C(=O)Nc1nc2cc(Br)ccc2o1	1.47 µM (≈ 0.499 µg/mL)	1.47 µM (≈ 0.499 µg/mL)
Cc1nnsc1C(=O)Nc1nc2c(Br)cccc2o1	0.74 µM (≈ 0.251 µg/mL)	0.74 µM (≈ 0.251 µg/mL)
Cc1nnsc1C(=O)Nc1nc2ccccc2o1	0.48 µM (≈ 0.125 µg/mL)	0.48 µM (≈ 0.125 µg/mL)
CN[C@@H]1[C@H](O[C@H]2[C@H](O[C@H]3[C@H](O)[C@@H](O)[C@H](N=C(N)N)[C@@H](O)[C@@H]3N=C(N)N)O[C@@H](C)[C@]2(O)C=O)O[C@@H](CO)[C@H](O)[C@H]1O [STREPTOMYCIN]	87.8 µM (≈ 51.1 µg/mL)	< 0.69 µM
